Assay results as given in US6528510B1, “HIV protease inhibitors” (Warner-Lambert Company, priority 1998, dated 2003).
Read-outs that look alike come from different tables or passages of the source.

Columns and labels:
[1] = Mouse blood levels after oral dosing; assay type: in vivo, Charles River CD-1 mice; conditions: CD-1, mouse, plasma, mice, oral dose of 25 mg/kg; for Cmax: read-out: Cmax (maximum concentration reached within the plasma); for half-life: read-out: T 1/2 (half life) (converted)
Protocol: Charles River CD-1 mice were dosed with a 25 mg/kg drug solution orally by gavage. For oral dosing the compounds were dissolved in 0.1N NaOH (20% final volume) and then 0.5% methylcellulose (80% final volume) was added. Blood was drawn and pooled from 5 mice at each time point via heart puncture and was placed in a 15 mL centrifuge tube containing heparin. The plasma stored in 200 μL aliquots at −80° C. until assayed.
Plasma was thawed at room temperature and then 400 μL of acetonitrile was added to each vial and vortexed. Following centrifugation the supernatant was removed and evaporated in a nitrogen evaporator at 48° C. Residue was then resolublized in 200 μL of a 75% water/25% CH3CN solution for HPLC analysis. HPLC analysis used a Zorbax RX-C8 column (4.6×150 mm) with a 25 mM potassium phosphate buffer with 0.1% TFA, pH 3.0. Mobile phases consisted of varying percentages of two buffer mixtures: Buffer A—90% buffer, 10% CH3CN, and Buffer B—30% buffer, 70% CH3CN.
A standard curve ranging from 0.5 to 50 μg/mL was used for each drug tested. Ten times final concentration solutions of drug in water were prepared from stock solutions of 1 mg/mL drug in DMSO. The final 1:10 dilution was then done in mouse plasma obtained from mice described above.

[2] = tested on: HIV infected lymphocyte derived CEM cells; experiment: Cellular infection assay in CEM cells, XTT cytopathic procedure (EC50); conditions: for TI (therapeutic index, TC50/EC50): CEM cells; for EC50: Human immunodeficiency virus 1, CCRF-CEM, read-out: Antiviral Efficacy EC50
Protocol: (§1) Compound concentrations were 0.32, 1, 3.2, 10, 32, and 100 uM.

[3] = Cellular toxicity in uninfected CEM cells, XTT (TC50); conditions: human, uninfected CEM cells (lymphocyte derived)
Protocol: as §1

[4] = molecular target: T1, Recombinant HIV-1 protease (Human immunodeficiency virus type 1 group M subtype B, UniProt P04585); experiment: HIV protease assay (Ki determination, HPLC readout of substrate III cleavage); assay type: biochemical
T1 construct: Recombinant HIV-1 protease (>96% purity); purchased Bachem Bioscience, Inc. (King of Prussia, Pa.)
Protocol: Recombinant HIV-1 protease (>96% purity) and HIV protease substrate III (the undecapeptide H-His-Lys-Ala-Arg-Val-Leu-Nph-Glu-Ala-Nle-Ser-NH2, 97% purity) were purchased from Bachem Bioscience, Inc. (King of Prussia, Pa.).
The methods employed follow the procedures of Tummino, et al., Archives of Biochemistry and Biophysics, 1995;316:523). […] (total volume, […]). […] The final inhibitor concentrations used were 0 (0.1, 0.2, in some experiments), 0.5, 1, 2, 5, 10, 20, 50, and 100 μM. The solution was mixed, incubated for 5 minutes and the reaction quenched by addition of trifluoracetic acid, 2% final. The (leu-p-nitro-phe) bond of the substrate is cleaved by the enzyme and substrate arid products separated by reverse-phase HPLC. Absorbance was measured at 220 nm, peak areas determined, and percentage conversion to product used to calculate percentage control (=[% conversion (+inhibitor)/% conversion (−inhibitor)]×100).

[5] = Rat blood levels after IV dosing; assay type: in vivo; conditions: plasma, rats, IV dose of 10 mg/kg; for half-life: read-out: T 1/2 (half life) (converted)
Protocol: (§2) The procedure for pharmacokinetics analysis in dogs and rats was similar. For dog studies, two dogs received a single oral 10 mg/kg dose of the HIV protease inhibitor as a solution. The protease inhibitor was dissolve in 0.1N NaOH followed by buffering or diluting with isotonic phosphate buffer or water depending on solubility. For rat studies. two male rats received a single oral 10 mg/kg gavage dose of the HIV protease inhibitor suspended in 0.5% methylcellulose. For the IV administration, the compounds were dissolved in 0.1N sodium hydroxide at a concentration of 10 mg/ml. The IV dose was given bolus. Blood samples were collected prior to dosing and at 0.25, 0.5, 1, 1.5, 2, 3, 4, 8, 12, and 24 hours postdose. Plasma samples were analyzed for the HIV protease inhibitor using a HPLC procedure. The method involved plasma protein precipitation with acetonitrile, reverse-phase chromatographic separation of the HIV protease inhibitor and internal standard, and quantitation by UV detection. Some plasma samples were concentrated by evaporation prior to injection. Pharmacokinetic parameters were determined by noncompartmental analysis of individual rat-plasma concentration-time curves using WinNonlin. Maximum concentration (Cmax) and time for these to occur (tmax) were recorded as observed. Area under concentration-time curve (AUC) values were obtained using the linear trapezoidal rule.

[6] = Rat blood levels after oral dosing; assay type: in vivo; conditions: male, plasma, rats, oral dose of 10 mg/kg; for Cmax: read-out: Cmax (maximum concentration reached within the plasma); for half-life: read-out: T 1/2 (half life) (converted)
Protocol: as §2

[7] = recombinant HIV-1 protease, read-out: Inhib of HIV Protease KI

Row | Structure (SMILES) | Cmax [1] [µM] | half-life [1] [min] | TI (therapeutic index, TC50/EC50) [2] | EC50 [2] [nM] | CC50 [3] [µM] | Ki [4, 7] [nM] | C0 [5] [µM] | half-life [5] [min] | Cmax [6] [µM] | half-life [6] [min] | Ki [4] [nM]
1 | Cc1cc(SC2=C(O)CC(CCc3ccsc3)(C(C)C)OC2=O)c(C(C)(C)C)cc1CO (stereo not drawn) [Example 7, 3-(2-tert-Butyl-4-hydroxymethyl-5-methyl-phenylsulfanyl)-4-hydroxy-6-isopropyl-6-(2-thiophen-3-yl-ethyl)-5,6-dihydro-pyran-2-one] | 40 | 210 | 366 | 300 | 110 | 0.17 |  |  |  |  | 
2 | Cc1cc(SC2=C(O)CC(CCc3nccs3)(C(C)C)OC2=O)c(C(C)(C)C)cc1CO (stereo not drawn) [Example 25, 3-(2-tert-Butyl-4-hydroxymethyl-5-methyl-phenylsulfanyl)-4-hydroxy-6-isopropyl-6-(2-thiazol-2-yl-ethyl)-5,6-dihydro-pyran-2-one] | 33 | 198 | 308 | 700 | 216 | 0.57 | 120 | 480 | 6 | 720 | 
3 | CC(C)[C@]1(CCc2ccccc2)CC(O)=C(Sc2cc3sc(N)nc3cc2C(C)(C)C)C(=O)O1 [Example 13, (S)-3-(2-Amino-5-tert-butyl-benzothiazol-6-ylsulfanyl)-4-hydroxy-6-isopropyl-6-phenethyl-5,6-dihydro-pyran-2-one] |  |  | 152 | 280 | 42 |  |  |  | 5.1 | 516 | 
4 | Cc1cc(SC2=C(O)CC(CCc3ccncc3)(C(C)C)OC2=O)c(C(C)(C)C)cc1CO (stereo not drawn) [Example 1, 3-(2-tert-Butyl-4-hydroxymethyl-5-methyl-phenylsulfanyl)-4-hydroxy-6-isopropyl-6-(2-pyridin-4-yl-ethyl)-5,6-dihydro-pyran-2-one] |  |  | 197 | 1500 | 296 | 1.5 |  |  |  |  | 
5 | CC(C)[C@]1(CCc2cccc(F)c2)CC(O)=C(Sc2cc3sc(N)nc3cc2C(C)(C)C)C(=O)O1 [Example 83, (S)-3-(2-Amino-5-tert-butyl-benzothiazol-6-ylsulfanyl)-6-[2-(3-fluoro-phenyl)-ethyl]-4-hydroxy-6-isopropyl-5,6-dihydro-pyran-2-one] |  |  | 235 | 260 | 61 |  | 199 | 240 |  |  | 0.44
6 | Cc1cnc(CCC2(C(C)C)CC(O)=C(Sc3cc(C)c(CO)cc3C(C)(C)C)C(=O)O2)s1 (racemic) [Example 28, 3-(2-tert-Butyl-4-hydroxymethyl-5-methyl-phenylsulfanyl)-4-hydroxy-6-isopropyl-6-[2-(5-methyl-thiazol-2-yl)-ethyl]-5,6-dihydro-pyran-2-one] |  |  | 120 | 1900 | 229 |  |  |  |  |  | 0.24
7 | Cc1ccc(C(C)(C)C)c(SC2=C(O)CC(CCc3ccc(CO)s3)(C(C)C)OC2=O)c1 (racemic) [Example 55, 3-(2-tert-Butyl-5-methyl-phenylsulfanyl)-4-hydroxy-6-[2-(5-hydroxymethyl-thiophen-2-yl)-ethyl]-6-isopropyl-5,6-dihydro-pyran-2-one] |  |  | 8 | 8300 | 66 |  |  |  |  |  | 1.7
8 | Cc1cc(SC2=C(O)CC(CCc3ccc(CO)s3)(C(C)C)OC2=O)c(C(C)(C)C)cc1N (racemic) [Example 38, 3-(4-Amino-2-tert-butyl-5-methyl-phenylsulfanyl)-4-hydroxy-6-[2-(5-hydroxymethyl-thiophen-2-yl)-ethyl]-6-isopropyl-5,6-dihydro-pyran-2-one] |  |  | 113 | 1100 | 124 |  |  |  |  |  | 0.33
9 | Cc1cc(SC2=C(O)CC(CCc3sccc3C)(C(C)C)OC2=O)c(C(C)(C)C)cc1N (racemic) [Example 65, 3-(4-Amino-2-tert-butyl-5-methyl-phenylsulfanyl)-4-hydroxy-6-isopropyl-6-[2-(3-methyl-thiophen-2-yl)-ethyl]-5,6-dihydro-pyran-2-one] |  |  | 54 | 1100 | 60 |  |  |  |  |  | 1.2
10 | Cc1csc(CCC2(C(C)C)CC(O)=C(Sc3cc(C)c(CO)cc3C(C)(C)C)C(=O)O2)n1 (stereo not drawn) [Example 26, 3-(2-tert-Butyl-4-hydroxymethyl-5-methyl-phenylsulfanyl)-4-hydroxy-6-isopropyl-6-[2-(4-methyl-thiazol-2-yl)-ethyl]-5,6-dihydro-pyran-2-one] |  |  | 213 | 800 | 171 | 0.45 |  |  |  |  | 
11 | CC(C)c1cc2nc(N)sc2cc1SC1=C(O)C[C@@](CCc2ccccc2)(C(C)C)OC1=O [Example 14, (S)-3-(2-Amino-5-isopropyl-benzothiazol-6-ylsulfanyl)-4-hydroxy-6-isopropyl-6-phenethyl-5,6-dihydro-pyran-2-one] |  |  | 30 | 2500 | 75 | 0.67 |  |  |  |  | 
12 | Cc1cc(SC2=C(O)CC(CCc3ccoc3)(C(C)C)OC2=O)c(C(C)(C)C)cc1CO (stereo not drawn) [Example 4, 3-(2-tert-Butyl-4-hydroxymethyl-5-methyl-phenylsulfanyl)-6-(2-furan-3-yl-ethyl)-4-hydroxy-6-isopropyl-5,6-dihydro-pyran-2-one] | 54 | 336 | 199 | 1000 | 199 | 0.35 |  |  |  |  | 
13 | CC(C)C1(CCc2ccccc2CO)CC(O)=C(Sc2cc3cc[nH]c3cc2C(C)(C)C)C(=O)O1 (racemic) [Example 69, 4-Hydroxy-3-(6-tert-butyl-indol-5-ylsulfanyl)-6-[2-(2-hydroxymethyl-phenyl)-ethyl]6-isopropyl-5,6-dihydropyran-2-one] |  |  | 306 | 180 | 55 |  | 335 | 270 |  |  | 0.67
14 | CC(C)C1(CCc2ccsc2)CC(O)=C(Sc2cc3sc(N)nc3cc2C(C)(C)C)C(=O)O1 (racemic) [Example 82] |  |  | 109 | 700 | 76 |  |  |  |  |  | 1.1
15 | CC(C)[C@]1(CCc2ccccc2)CC(O)=C(Sc2cc3cc[nH]c3cc2C(C)(C)C)C(=O)O1 [Example 73, (S)-3-(6-tert-Butyl-1H-indol-5-yl-sulfanyl)-4-hydroxy-6-isopropyl-6-(2-phenethyl)-5,6-dihydro-pyran-2-one] |  |  | 69 | 610 | 42 |  |  |  |  |  | 0.54
